tested on: Serum Phospholipid; experiment: Hypolipidemic effect: serum phospholipid; format: in vivo, rat (Wistar-strain); settings: 50 mg/kg oral, 2 h; control 79 ± 2
Method: (§1) The test drugs suspended in 0.5% aqueous C.M.C. solution were orally administered to groups of 8 Wistar-strain male rats (weighing about 185 g) which were fasted for 18 to 20 hours. 2 hours later, the serum was obtained in the same manner described in (2). Serum triglyceride was measured according to the GPO-p-chlorophenol colorimetric determination [Richard W. Spayd et al., Clinical Chemistry, 24, 1343 (1978)], serum free fatty acid was measured according to the Acyl CoA Synthetase-Acyl CoA Oxidase method [Shimizu S. et al., Biochem. Biophys. Res. Commun., 91, 108 (1979)], free fatty acid was measured according to the enzymatic method [Charles C. Allain et al., Clin. Chem., 20, No. 4, 470 (1974)] and total cholesterol was measured according to the enzymatic method [Takayama M. et al., Clinica Chimica Acta, 79, 93 (1977)]. Asterisks indicate significant differences (*: p<0.05, **: p<00.01, ***: p<0.001) from the control.

Row | Compound | Serum Phospholipid Level [mg/dL]
1 | CCCCNC(=O)NS(=O)(=O)c1ccc(C)cc1 [Tolubutamide, reference compound] | 75 ± 2

same assay, conditions: 100 mg/kg oral, 2 h; control 79 ± 2 (compounds 2-12), 72 ± 2 (compounds 15-29)

Row | Compound | Serum Phospholipid Level [mg/dL]
2 | CCCCN1C(=O)NC(=O)C1=O [compound 4, 1-butylimidazolidinetrione] | 58 ± 1
3 | CCCCCCN1C(=O)NC(=O)C1=O [compound 7, 1-hexylimidazolidinetrione] | 66 ± 2
4 | O=C1NC(=O)N(C2CCCCC2)C1=O [compound 11, 1-cyclohexylimidazolidinetrione] | 60 ± 2
5 | O=C1NC(=O)N(Cc2ccccc2F)C1=O [compound 16, 1-(2-fluorobenzyl)imidazolidinetrione] | 54 ± 1
6 | O=C1NC(=O)N(Cc2cccc(F)c2)C1=O [compound 17, 1-(3-fluorobenzyl)imidazolidinetrione] | 58 ± 1
7 | O=C1NC(=O)N(Cc2ccc(Br)cc2)C1=O [compound 21, 1-(4-bromobenzyl)imidazolidinetrione] | 57 ± 1
8 | O=C1NC(=O)N(Cc2ccc([N+](=O)[O-])cc2)C1=O [compound 23, 1-(4-nitrobenzyl)imidazolidinetrione] | 65 ± 2

same assay, conditions: Rattus norvegicus; 50 mg/kg oral, 2 h; vs control; read-out: Serum Phospholipid Decrease

Row | Compound | inhibition in vivo at 50 mg/kg [%]
9 | CCCCNC(=O)NS(=O)(=O)c1ccc(C)cc1 [Tolubutamide, reference compound] | 5.1

same assay, conditions: Rattus norvegicus; 100 mg/kg oral, 2 h; vs control; read-out: Serum Phospholipid Decrease

Row | Compound | inhibition in vivo at 100 mg/kg [%]
10 | CCCCN1C(=O)NC(=O)C1=O [compound 4, 1-butylimidazolidinetrione] | 26.6
11 | CCCCCCN1C(=O)NC(=O)C1=O [compound 7, 1-hexylimidazolidinetrione] | 16.5
12 | O=C1NC(=O)N(C2CCCCC2)C1=O [compound 11, 1-cyclohexylimidazolidinetrione] | 24.1
13 | O=C1NC(=O)N(Cc2ccccc2F)C1=O [compound 16, 1-(2-fluorobenzyl)imidazolidinetrione] | 25
14 | O=C1NC(=O)N(Cc2cccc(F)c2)C1=O [compound 17, 1-(3-fluorobenzyl)imidazolidinetrione] | 19.4
15 | O=C1NC(=O)N(Cc2ccc(Br)cc2)C1=O [compound 21, 1-(4-bromobenzyl)imidazolidinetrione] | 20.8
16 | O=C1NC(=O)N(Cc2ccc([N+](=O)[O-])cc2)C1=O [compound 23, 1-(4-nitrobenzyl)imidazolidinetrione] | 9.7

tested on: Serum Triglyceride; experiment: Hypolipidemic effect: serum triglyceride; format: in vivo, rat (Wistar-strain); settings: 50 mg/kg oral, 2 h; control 65 ± 5
Method: as §1

Row | Compound | Serum Triglyceride Level [mg/dL]
17 | CCCCNC(=O)NS(=O)(=O)c1ccc(C)cc1 [Tolubutamide, reference compound] | 53 ± 4

same assay, conditions: 100 mg/kg oral, 2 h; control 65 ± 5 (compounds 2-12), 57 ± 4 (compounds 15-29)

Row | Compound | Serum Triglyceride Level [mg/dL]
18 | CCCCN1C(=O)NC(=O)C1=O [compound 4, 1-butylimidazolidinetrione] | 23 ± 1
19 | CCCCCCN1C(=O)NC(=O)C1=O [compound 7, 1-hexylimidazolidinetrione] | 38 ± 3
20 | O=C1NC(=O)N(C2CCCCC2)C1=O [compound 11, 1-cyclohexylimidazolidinetrione] | 27 ± 1
21 | O=C1NC(=O)N(Cc2ccccc2F)C1=O [compound 16, 1-(2-fluorobenzyl)imidazolidinetrione] | 30 ± 1
22 | O=C1NC(=O)N(Cc2cccc(F)c2)C1=O [compound 17, 1-(3-fluorobenzyl)imidazolidinetrione] | 30 ± 1
23 | O=C1NC(=O)N(Cc2ccc(Br)cc2)C1=O [compound 21, 1-(4-bromobenzyl)imidazolidinetrione] | 35 ± 2
24 | O=C1NC(=O)N(Cc2ccc([N+](=O)[O-])cc2)C1=O [compound 23, 1-(4-nitrobenzyl)imidazolidinetrione] | 38 ± 2

same assay, conditions: Rattus norvegicus; 50 mg/kg oral, 2 h; vs control; read-out: Serum Triglyceride Decrease

Row | Compound | inhibition in vivo at 50 mg/kg [%]
25 | CCCCNC(=O)NS(=O)(=O)c1ccc(C)cc1 [Tolubutamide, reference compound] | 18.5

same assay, conditions: Rattus norvegicus; 100 mg/kg oral, 2 h; vs control; read-out: Serum Triglyceride Decrease

Row | Compound | inhibition in vivo at 100 mg/kg [%]
26 | CCCCN1C(=O)NC(=O)C1=O [compound 4, 1-butylimidazolidinetrione] | 64.6
27 | CCCCCCN1C(=O)NC(=O)C1=O [compound 7, 1-hexylimidazolidinetrione] | 41.5
28 | O=C1NC(=O)N(C2CCCCC2)C1=O [compound 11, 1-cyclohexylimidazolidinetrione] | 58.5
29 | O=C1NC(=O)N(Cc2ccccc2F)C1=O [compound 16, 1-(2-fluorobenzyl)imidazolidinetrione] | 47.4
30 | O=C1NC(=O)N(Cc2cccc(F)c2)C1=O [compound 17, 1-(3-fluorobenzyl)imidazolidinetrione] | 47.4
31 | O=C1NC(=O)N(Cc2ccc(Br)cc2)C1=O [compound 21, 1-(4-bromobenzyl)imidazolidinetrione] | 38.6
32 | O=C1NC(=O)N(Cc2ccc([N+](=O)[O-])cc2)C1=O [compound 23, 1-(4-nitrobenzyl)imidazolidinetrione] | 33.3

tested on: Serum Free Fatty Acid; experiment: Hypolipidemic effect: serum free fatty acid; format: in vivo, rat (Wistar-strain); settings: 50 mg/kg oral, 2 h; control 0.53 ± 0.03
Method: as §1

Row | Compound | Serum Free Fatty Acid Level [mEq/l]
33 | CCCCNC(=O)NS(=O)(=O)c1ccc(C)cc1 [Tolubutamide, reference compound] | 0.44 ± 0.02

same assay, conditions: 100 mg/kg oral, 2 h; control 0.53 ± 0.03 (compounds 2-12), 0.52 ± 0.03 (compounds 15-24)

Row | Compound | Serum Free Fatty Acid Level [mEq/l]
34 | CCCCN1C(=O)NC(=O)C1=O [compound 4, 1-butylimidazolidinetrione] | 0.27 ± 0.02
35 | O=C1NC(=O)N(C2CCCCC2)C1=O [compound 11, 1-cyclohexylimidazolidinetrione] | 0.34 ± 0.01
36 | O=C1NC(=O)N(Cc2ccc(Br)cc2)C1=O [compound 21, 1-(4-bromobenzyl)imidazolidinetrione] | 0.44 ± 0.02

same assay, conditions: Rattus norvegicus; 50 mg/kg oral, 2 h; vs control; read-out: Serum Free Fatty Acid Decrease

Row | Compound | inhibition in vivo at 50 mg/kg [%]
37 | CCCCNC(=O)NS(=O)(=O)c1ccc(C)cc1 [Tolubutamide, reference compound] | 15.7

same assay, conditions: Rattus norvegicus; 100 mg/kg oral, 2 h; vs control; read-out: Serum Free Fatty Acid Decrease

Row | Compound | inhibition in vivo at 100 mg/kg [%]
38 | CCCCN1C(=O)NC(=O)C1=O [compound 4, 1-butylimidazolidinetrione] | 49.1
39 | O=C1NC(=O)N(C2CCCCC2)C1=O [compound 11, 1-cyclohexylimidazolidinetrione] | 35.8
40 | O=C1NC(=O)N(Cc2ccc(Br)cc2)C1=O [compound 21, 1-(4-bromobenzyl)imidazolidinetrione] | 15.2

tested on: Blood Glucose; experiment: Hypoglycemic effect in glucose-loaded fasted rats (blood glucose); format: in vivo, rat (Wistar-strain); settings: Rattus norvegicus; Table 2; 100 mg/kg oral, 2 h; vs control; read-out: Blood Glucose Decrease
Method: Groups of 7 Wistar-strain male rats (weighing about 200 g) which were fasted for 18 hours were used for measurement of hypoglycemic effect according to the modified method by Dulin et al. [Dulin, W. L. et al., Proc. Soc. Expl. Med., 107, 245 (1961)]. That is, 0.5 ml/100 g of 20% aqueous solution of glucose was subcutaneously administered to the backs of rats to prevent a decrease in blood glucose level because of the fasting. Immediately thereafter the test drug suspended in 0.5% aqueous C.M.C. solution was orally given, and 2 hours later, the animals underwent laparotomy under pentobarbital anesthesia, then blood was drawn from the vena cava. The obtained blood sample was allowed to stand for 30 minutes to complete the coagulation and was centrifuged to obtain the serum. Blood sugar level was measured according to the mutalotase GOD method [Trinder, Ann. Clin. Biochem., 6, 24 […]]. Asterisks indicate significant differences (*: p<0.05, **: p<0.01, ***: p<0.001) from the control.

Row | Compound | inhibition in vivo at 100 mg/kg [%]
41 | CCCCNC(=O)NS(=O)(=O)c1ccc(C)cc1 [Tolubutamide, reference compound] | 63.9
42 | CCCCN1C(=O)NC(=O)C1=O [compound 4, 1-butylimidazolidinetrione] | 33.8
43 | CCCCCCN1C(=O)NC(=O)C1=O [compound 7, 1-hexylimidazolidinetrione] | 23.3
44 | O=C1NC(=O)N(C2CCCCC2)C1=O [compound 11, 1-cyclohexylimidazolidinetrione] | 24.1

same assay, conditions: Rattus norvegicus; Table 3; 100 mg/kg oral, 2 h; vs control; read-out: Blood Glucose Decrease

Row | Compound | inhibition in vivo at 100 mg/kg [%]
45 | O=C1NC(=O)N(Cc2ccccc2F)C1=O [compound 16, 1-(2-fluorobenzyl)imidazolidinetrione] | 11.3
46 | O=C1NC(=O)N(Cc2cccc(F)c2)C1=O [compound 17, 1-(3-fluorobenzyl)imidazolidinetrione] | 13.5
47 | O=C1NC(=O)N(Cc2ccc([N+](=O)[O-])cc2)C1=O [compound 23, 1-(4-nitrobenzyl)imidazolidinetrione] | 12

same assay, conditions: Table 2; 100 mg/kg oral, 2 h; control 133 ± 6

Row | Compound | Blood Glucose Level [mg/dL]
48 | CCCCNC(=O)NS(=O)(=O)c1ccc(C)cc1 [Tolubutamide, reference compound] | 48 ± 1
49 | CCCCN1C(=O)NC(=O)C1=O [compound 4, 1-butylimidazolidinetrione] | 88 ± 7
50 | CCCCCCN1C(=O)NC(=O)C1=O [compound 7, 1-hexylimidazolidinetrione] | 102 ± 6
51 | O=C1NC(=O)N(C2CCCCC2)C1=O [compound 11, 1-cyclohexylimidazolidinetrione] | 101 ± 2

same assay, conditions: Table 3; 100 mg/kg oral, 2 h; control 133 ± 4

Row | Compound | Blood Glucose Level [mg/dL]
52 | O=C1NC(=O)N(Cc2ccccc2F)C1=O [compound 16, 1-(2-fluorobenzyl)imidazolidinetrione] | 118 ± 4
53 | O=C1NC(=O)N(Cc2cccc(F)c2)C1=O [compound 17, 1-(3-fluorobenzyl)imidazolidinetrione] | 115 ± 2
54 | O=C1NC(=O)N(Cc2ccc([N+](=O)[O-])cc2)C1=O [compound 23, 1-(4-nitrobenzyl)imidazolidinetrione] | 117 ± 3

same assay, conditions: oral, rats

Row | Compound | Blood sugar effect (in words)
55 | CCCCNC(=O)NS(=O)(=O)c1ccc(C)cc1 [Tolubutamide, reference compound] | excessive hypoglycemia

tested on: Total Serum Cholesterol; experiment: Hypolipidemic effect: total serum cholesterol; format: in vivo, rat (Wistar-strain); settings: 50 mg/kg oral, 2 h; control 44 ± 2
Method: as §1

Row | Compound | Total Serum Cholesterol Level [mg/dL]
56 | CCCCNC(=O)NS(=O)(=O)c1ccc(C)cc1 [Tolubutamide, reference compound] | 46 ± 1

same assay, conditions: 100 mg/kg oral, 2 h; control 44 ± 2 (compounds 4-12), 41 ± 1 (compounds 15-29)

Row | Compound | Total Serum Cholesterol Level [mg/dL]
57 | CCCCN1C(=O)NC(=O)C1=O [compound 4, 1-butylimidazolidinetrione] | 39 ± 1
58 | O=C1NC(=O)N(C2CCCCC2)C1=O [compound 11, 1-cyclohexylimidazolidinetrione] | 39 ± 1
59 | O=C1NC(=O)N(Cc2ccccc2F)C1=O [compound 16, 1-(2-fluorobenzyl)imidazolidinetrione] | 33 ± 2
60 | O=C1NC(=O)N(Cc2cccc(F)c2)C1=O [compound 17, 1-(3-fluorobenzyl)imidazolidinetrione] | 37 ± 1
61 | O=C1NC(=O)N(Cc2ccc(Br)cc2)C1=O [compound 21, 1-(4-bromobenzyl)imidazolidinetrione] | 36 ± 1

same assay, conditions: Rattus norvegicus; 50 mg/kg oral, 2 h; vs control; read-out: Total Serum Cholesterol Decrease

Row | Compound | inhibition in vivo at 50 mg/kg [%]
62 | CCCCNC(=O)NS(=O)(=O)c1ccc(C)cc1 [Tolubutamide, reference compound] | -4.5

same assay, conditions: Rattus norvegicus; 100 mg/kg oral, 2 h; vs control; read-out: Total Serum Cholesterol Decrease

Row | Compound | inhibition in vivo at 100 mg/kg [%]
63 | CCCCN1C(=O)NC(=O)C1=O [compound 4, 1-butylimidazolidinetrione] | 11.4
64 | O=C1NC(=O)N(C2CCCCC2)C1=O [compound 11, 1-cyclohexylimidazolidinetrione] | 11.4
65 | O=C1NC(=O)N(Cc2ccccc2F)C1=O [compound 16, 1-(2-fluorobenzyl)imidazolidinetrione] | 19.5
66 | O=C1NC(=O)N(Cc2cccc(F)c2)C1=O [compound 17, 1-(3-fluorobenzyl)imidazolidinetrione] | 9.8
67 | O=C1NC(=O)N(Cc2ccc(Br)cc2)C1=O [compound 21, 1-(4-bromobenzyl)imidazolidinetrione] | 12.2

— patent publication US4683240A, “Pharmaceutical composition containing an imidazolidinetrione derivative or pharmaceutically acceptable salt thereof” (Nippon Zoki Pharmaceutical Co., Ltd., priority 1985, dated 1987)
